Experimental data published in patent US20200017495A1, “NOVEL HETEROCYCLIC COMPOUNDS AND THEIR USE IN PREVENTING OR TREATING BACTERIAL INFECTIONS” (priority 2017, published 2020).

Tests used:
[1] = tested on: Klebsiella pneumoniae (KPN) isolates; assay: MIC of compounds alone and combined with antibacterials, broth microdilution (CLSI); type: cell-based
Experimental: (§1) Method 2: MIC of Compounds Alone and Combined with Antibacterials Against Bacterial Isolates
(§2) Compounds of the present invention were assessed against genotyped bacterial strains (Table 3, 4) alone or in combination with an antibacterial (Table 2). […] Log phase bacterial suspensions were adjusted to a final density of 5.10^5 CFU/mL in cation-adjusted Mueller-Hinton broth (ca-MHB; Becton-Dickinson and Company) and added to each well (98 μL). Microplates were incubated for 16-20 h at 35° C. in ambient air. The MIC of the compounds was defined as the lowest concentration of said compounds that prevented bacterial growth as read by visual inspection. The MIC of ATB at each compound concentration was defined as the lowest concentration of ATB that prevented bacterial growth as read by visual inspection.

[2] = tested on: Morganella morganii (MMO) isolates; assay: as above; type: cell-based
Experimental: as §1, §2

Compound: C=CC1=C(C(=O)O)N2C(=O)[C@@H](NC(=O)/C(=N\OCC(=O)O)c3csc(N)n3)[C@H]2SC1 [FIX, Cefixime]
- MIC ATB in combination ([1]; strain KPN UFR167, with AF2 @ 8 μg/mL): >128 µg/mL
- MIC ATB in combination ([1]; strain KPN UFR167, with AF3 @ 8 μg/mL): >128 µg/mL
- MIC ATB in combination ([1]; strain KPN UFR167, with CLA @ 4 μg/mL): >128 µg/mL
- MIC ([1]; strain KPN UFR168, genotype SHV-2, CTX-M-15, OXA-1, OXA-181, NDM-1, ArmA, antibiotic alone): >128 µg/mL
- MIC ATB in combination ([1]; strain KPN UFR168, with AF2 @ 8 μg/mL): >128 µg/mL
- MIC ATB in combination ([1]; strain KPN UFR168, with AF3 @ 8 μg/mL): >128 µg/mL
- MIC ATB in combination ([1]; strain KPN UFR168, with CLA @ 4 μg/mL): >128 µg/mL
- MIC ([1]; strain KPN UFR169, genotype TEM-1, SHV-28, CTX-M-15, CMY-4, OXA-1, NDM-1, antibiotic alone): >128 µg/mL
- MIC ATB in combination ([1]; strain KPN UFR169, with AF2 @ 8 μg/mL): >128 µg/mL
- MIC ATB in combination ([1]; strain KPN UFR169, with AF3 @ 8 μg/mL): >128 µg/mL
- MIC ATB in combination ([1]; strain KPN UFR169, with CLA @ 4 μg/mL): >128 µg/mL
- MIC ([1]; strain KPN UFR170, genotype TEM-1, SHV-28, CTX-M-15, CMY-6, OXA-1, OXA-9, NDM-1, antibiotic alone): >128 µg/mL
- MIC ATB in combination ([1]; strain KPN UFR170, with AF2 @ 8 μg/mL): <0.25 µg/mL
- MIC ATB in combination ([1]; strain KPN UFR170, with AF3 @ 8 μg/mL): >128 µg/mL
- MIC ATB in combination ([1]; strain KPN UFR170, with CLA @ 4 μg/mL): >128 µg/mL
- MIC ([1]; strain KPN UFR171, genotype TEM-1, SHV-28, CTX-M-15, OXA-1, OXA-10, NDM-1, RmtA, antibiotic alone): >128 µg/mL
- MIC ATB in combination ([1]; strain KPN UFR171, with AF2 @ 8 μg/mL): <0.25 µg/mL
- MIC ATB in combination ([1]; strain KPN UFR171, with AF3 @ 8 μg/mL): <0.25 µg/mL
- MIC ATB in combination ([1]; strain KPN UFR171, with CLA @ 4 μg/mL): >128 µg/mL
- MIC ([1]; strain KPN UFR172, genotype SHV-38, CMY-16, OXA-10, NDM-1, antibiotic alone): >128 µg/mL
- MIC ATB in combination ([1]; strain KPN UFR172, with AF2 @ 8 μg/mL): <0.25 µg/mL
- MIC ATB in combination ([1]; strain KPN UFR172, with AF3 @ 8 μg/mL): <0.25 µg/mL
- MIC ATB in combination ([1]; strain KPN UFR172, with CLA @ 4 μg/mL): >128 µg/mL
- MIC ([1]; strain KPN UFR215, genotype SHV-27, CTX-M-15): >128 µg/mL
- MIC ([1]; strain KPN UFR216, genotype SHV-28, CTX-M-15): >128 µg/mL
- MIC ([1]; strain KPN UFR217, genotype TEM-1, SHV-1, CTX-M-15): >128 µg/mL
- MIC ([1]; strain KPN UFR219, genotype SHV-12, CTX-M-15): >128 µg/mL
- MIC ([1]; strain KPN UFR220, genotype TEM-1, SHV-12, DHA-1): >128 µg/mL
- MIC ([1]; strain KPN UFR221, genotype TEM-1, SHV-11, CTX-M-14, DHA-1): 64 µg/mL
- MIC ([1]; strain KPN UFR222, genotype DHA-2): >128 µg/mL
- MIC ([1]; strain KPN UFR227O, genotype TEM-x, SHV-x, CTX-M-x): >128 µg/mL
- MIC ([1]; strain KPN UFR229O, genotype SHV-12, VIM-1, antibiotic alone): >128 µg/mL
- MIC ATB in combination ([1]; strain KPN UFR229O, with AF2 @ 8 μg/mL): >128 µg/mL
- MIC ATB in combination ([1]; strain KPN UFR229O, with AF3 @ 8 μg/mL): >128 µg/mL
- MIC ATB in combination ([1]; strain KPN UFR229O, with CLA @ 4 μg/mL): >128 µg/mL
- MIC ATB in combination ([2]; MMO 200321, AF2 @ 8 μg/mL): 1 µg/mL
- MIC ATB in combination ([2]; MMO 200321, AF3 @ 8 μg/mL): 1 µg/mL
- MIC ATB in combination ([2]; MMO 200321, CLA @ 4 μg/mL): 32 µg/mL
- MIC ATB in combination ([2]; MMO UFR144, AF2 @ 8 μg/mL): 1 µg/mL
- MIC ATB in combination ([2]; MMO UFR144, AF3 @ 8 μg/mL): 0.5 µg/mL
- MIC ATB in combination ([2]; MMO UFR144, CLA @ 4 μg/mL): 32 µg/mL
- MIC ATB in combination ([2]; MMO UFR240, AF2 @ 8 μg/mL): <=0.25 μg/mL
- MIC ATB in combination ([2]; MMO UFR240, AF3 @ 8 μg/mL): <=0.25 μg/mL
- MIC ATB in combination ([2]; MMO UFR240, CLA @ 4 μg/mL): 8 µg/mL
- MIC ATB in combination ([2]; MMO UFR241, AF2 @ 8 μg/mL): 2 µg/mL
- MIC ATB in combination ([2]; MMO UFR241, AF3 @ 8 μg/mL): 0.5 µg/mL
- MIC ATB in combination ([2]; MMO UFR241, CLA @ 4 μg/mL): 32 µg/mL
- MIC ATB in combination ([2]; MMO UFR242, AF2 @ 8 μg/mL): <=0.25 μg/mL
- MIC ATB in combination ([2]; MMO UFR242, AF3 @ 8 μg/mL): 1 µg/mL
- MIC ATB in combination ([2]; MMO UFR242, CLA @ 4 μg/mL): 64 µg/mL
- MIC ATB in combination ([2]; MMO UFR243, AF2 @ 8 μg/mL): 0.5 µg/mL
- MIC ATB in combination ([2]; MMO UFR243, AF3 @ 8 μg/mL): <=0.25 μg/mL
- MIC ATB in combination ([2]; MMO UFR243, CLA @ 4 μg/mL): 32 µg/mL
- MIC ATB in combination ([2]; MMO UFR244, AF2 @ 8 μg/mL): <=0.25 μg/mL
- MIC ATB in combination ([2]; MMO UFR244, AF3 @ 8 μg/mL): <=0.25 μg/mL
